From publication PMC11397024, “Strategic Fluorination to Achieve a Potent, Selective, Metabolically Stable, and Orally Bioavailable Inhibitor of CSNK2” (Molecules, 2024)
Entries after “also recorded” stand apart in the source; their conditions may differ. Where two headings read alike, the source gives them in different places.

Assays:
[1] = molecular target: T1, DAPK2 (Homo sapiens, UniProt Q9UIK4); assay: NanoBRET dose-response DAPK2; type: cell-based; details: highest concentration tested 30 μM
T1 construct: expressed in transfected cells; host or cells: HEK293
T1 sequence (Q9UIK4 whole entry): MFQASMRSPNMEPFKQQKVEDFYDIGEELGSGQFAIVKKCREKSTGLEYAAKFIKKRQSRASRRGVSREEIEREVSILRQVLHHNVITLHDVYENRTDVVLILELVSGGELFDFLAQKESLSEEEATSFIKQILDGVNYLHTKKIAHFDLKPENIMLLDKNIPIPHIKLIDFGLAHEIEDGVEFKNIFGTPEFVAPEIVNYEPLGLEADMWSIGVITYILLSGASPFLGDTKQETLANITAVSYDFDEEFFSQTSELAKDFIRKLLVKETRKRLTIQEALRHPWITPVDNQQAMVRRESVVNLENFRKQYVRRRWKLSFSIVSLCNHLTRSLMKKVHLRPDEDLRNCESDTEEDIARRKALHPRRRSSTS

[2] = molecular target: T2, CLK1 (Homo sapiens, UniProt P49759); assay: NanoBRET dose-response CLK1; type: cell-based
T2 construct: purchased Promega (NanoBRET Target Engagement K192 Kinase Selectivity System)
T2 sequence (P49759 whole entry): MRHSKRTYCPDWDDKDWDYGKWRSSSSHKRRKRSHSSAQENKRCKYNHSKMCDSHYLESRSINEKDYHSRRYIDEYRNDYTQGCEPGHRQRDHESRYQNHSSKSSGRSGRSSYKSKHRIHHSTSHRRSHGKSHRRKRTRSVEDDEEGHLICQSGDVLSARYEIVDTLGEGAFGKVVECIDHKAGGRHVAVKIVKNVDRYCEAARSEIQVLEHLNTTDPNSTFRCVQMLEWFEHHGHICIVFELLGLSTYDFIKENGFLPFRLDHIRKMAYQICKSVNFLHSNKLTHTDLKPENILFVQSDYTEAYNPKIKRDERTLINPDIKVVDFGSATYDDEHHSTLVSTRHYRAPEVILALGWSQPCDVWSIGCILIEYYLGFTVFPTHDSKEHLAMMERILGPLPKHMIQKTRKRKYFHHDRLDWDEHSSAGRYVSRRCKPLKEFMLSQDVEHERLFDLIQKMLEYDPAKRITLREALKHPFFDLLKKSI

[3] = tested on: A549-ACE2 cells; assay: CellTiter-Glo cytotoxicity assay; type: cell-based, Human
Description: (§1) A549-ACE2 cells were maintained in low-glucose DMEM (Gibco, Waltham, MA, USA) supplemented with 10% FBS, 1% NEAA, and 1% L-glutamine. No antibiotics were used. Cells were plated at 2000 cells/well in a 384-well plate (Costar, Glendale, AZ, USA) and incubated overnight (37 °C, 5% CO2) before adding the compound. Compounds were added in quadruplicate and incubated for 48 h. DMSO percentage was constant across all concentrations of the compound. Cell viability was measured using CellTiter-Glo2 (Promega, Madison, WI, USA) and the luminescence signal was read on a GloMax plate reader (Promega, Madison, WI, USA). Dose–response analysis was performed using GraphPad Prism.

[4] = CellTiter-Glo cytotoxicity assay; type: cell-based, Human; details: human, A549-ACE2 cells, 48 h, CellTiter-Glo, quadruplicate
Description: as §1

[5] = molecular target: T3, PHKG1 (Homo sapiens, UniProt Q16816); assay: NanoBRET dose-response PHKG1; type: cell-based; details: highest concentration tested 30 μM
T3 construct: purchased Promega (NanoBRET Target Engagement K192 Kinase Selectivity System)
T3 sequence (Q16816 whole entry): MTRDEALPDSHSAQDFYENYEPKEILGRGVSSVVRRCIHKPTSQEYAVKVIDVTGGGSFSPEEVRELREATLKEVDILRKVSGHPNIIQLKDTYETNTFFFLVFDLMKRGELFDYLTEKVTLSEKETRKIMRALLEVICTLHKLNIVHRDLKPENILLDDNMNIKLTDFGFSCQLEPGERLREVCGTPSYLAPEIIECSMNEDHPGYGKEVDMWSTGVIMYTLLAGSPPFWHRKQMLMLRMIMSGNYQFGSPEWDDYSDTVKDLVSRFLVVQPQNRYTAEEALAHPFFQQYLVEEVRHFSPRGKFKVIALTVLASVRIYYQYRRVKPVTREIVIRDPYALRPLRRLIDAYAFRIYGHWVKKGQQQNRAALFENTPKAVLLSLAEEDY

[6] = 24 h PK study in mice; type: in vivo, CD-1 mice; details: for concentration at 24 h: mouse, CD-1 mice, below limit of quantification, read-out: plasma concentration at the 24 h time point
Description: In the 24 h PK study, male CD-1 mice (6–8 weeks old, 20–30 g) were dosed by intravenous (i.v.), oral (p.o.), or intraperitoneal (i.p.) administration of compound 2. For i.v. administration, a single dose of compound 2 (3 mg/kg) was administered as 5 mL/kg of a 0.6 mg/mL solution in DMSO/PEG-400/Water (v/v/v, 10:30:60) to six mice. For p.o. administration, a single dose of compound 2 (10 mg/kg) was administered as 10 mL/kg of a 1 mg/mL solution in DMSO/PEG-400/Water (v/v/v, 10:30:60) to six mice. For i.p. administration, a single dose of compound 2 (10 mg/kg) was administered as 10 mL/kg of a 1 mg/mL solution in DMSO/PEG-400/Water (v/v/v, 10:30:60) to six mice. The mice had free access to water and food. At 0.083, 0.25, 0.5, 1, 2, 4, 8, 12, and 24 h post dose administration, 0.03 mL of blood was collected from the dorsal metatarsal vein of three mice at each time point. Each blood sample was transferred into a plastic microcentrifuge tube containing EDTA-K2 anticoagulant and mixed well with the anticoagulant then placed on ice prior to centrifugation at 4000× g for 5 min at 4 °C to obtain plasma. The samples were stored in a freezer at −75 ± 15 °C prior to analysis. At 12 h post dose administration and 24 h post dose administration, three mice were anesthetized using increasing concentrations of CO2, and lung samples were collected. Lung samples were quickly frozen in an ice box and stored at −75 ± 15 °C. Prior to analysis, all lung samples were weighed and homogenized with phosphate-buffered saline (PBS) in a lung weight (g)/buffer volume (mL) ratio of 1:3. The final concentration of the compound was calculated by multiplying the detected concentration by a dilution factor of four.
Concentrations of the test compound in the plasma samples were determined using a Prominence LC-MS/MS system with a DGU-20A5R(C) degasser, LC-30AD pump, CBM-20A system controller, SIL-20AC HT autosampler; Rack changer II, HALO 90A ES-CN (2.7 μm, 2.1 × 50 mm) column, and AB Sciex Triple Quan 5500 LC/MS/MS instrument. The mobile phase was 5–95% MeCN in H2O, with 0.1% formic acid. The desired serial concentrations of working solutions were achieved by diluting the stock solution of the analyte with 50% acetonitrile in water. A series of 10 µL working solutions […] were added to 10 μL of blank plasma or lung homogenate to achieve calibration standards of 0.5, 1, 2, 5, 10, 50, 100, 500, 1000 ng/mL in a total volume of 20 μL. A total of 5 quality control samples at 1 ng/mL, 2 ng/mL, 5 ng/mL, 100 ng/mL, and 800 ng/mL were prepared independently of those used for the calibration curves in the same manner. A 20 μL standard, 20 μL QC sample, and 20 μL of an unknown sample (10 µL plasma or lung homogenate with 10 µL blank solution) were added to 200 μL of acetonitrile containing internal standard mixture for precipitating protein. Then, the samples were vortexed for 30 s. After centrifugation at 4 °C and 4000 rpm for 15 min, the supernatant was diluted with ultrapure water at a ratio of 1:2 (v/v, 1:2), then 20 µL of diluted supernatant was injected into the LC/MS/MS system for quantitative analysis. PK parameters were calculated from the mean plasma concentration versus time using a noncompartmental model in WinNonlin Phoenix version 8.3.

[7] = Liver microsomal stability, human; type: in vitro ADME; details: pH 7.4, human liver microsomes, five time points over 1 h, read-out: HLM CLint
[8] = tested on: CSNK2; assay: In vitro inhibition of phosphorylation of EIF2S2; type: cell-based, Human; details: A549-ACE2 cells, 1 μM and 5 μM, 24 h, Western blot
[9] = molecular target: T4, CLK4 (Homo sapiens, UniProt Q9HAZ1); assay: NanoBRET dose-response CLK4; type: cell-based; details: highest concentration tested 30 μM
T4 construct: expressed in transfected cells; host or cells: HEK293
T4 sequence (Q9HAZ1 whole entry): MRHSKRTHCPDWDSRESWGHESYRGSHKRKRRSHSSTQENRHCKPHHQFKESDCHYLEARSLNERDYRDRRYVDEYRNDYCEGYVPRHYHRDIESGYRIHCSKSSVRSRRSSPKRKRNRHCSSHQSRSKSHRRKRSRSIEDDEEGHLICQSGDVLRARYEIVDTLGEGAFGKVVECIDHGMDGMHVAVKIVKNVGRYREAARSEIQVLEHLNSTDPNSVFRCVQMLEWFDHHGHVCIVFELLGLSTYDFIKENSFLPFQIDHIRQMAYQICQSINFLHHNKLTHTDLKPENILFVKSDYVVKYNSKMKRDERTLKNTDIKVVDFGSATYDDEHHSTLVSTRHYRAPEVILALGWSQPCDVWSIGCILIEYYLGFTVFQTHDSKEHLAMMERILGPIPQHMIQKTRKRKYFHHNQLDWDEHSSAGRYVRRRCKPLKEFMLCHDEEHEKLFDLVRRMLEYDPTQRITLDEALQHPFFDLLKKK

[10] = molecular target: T5, DYRK1A (Homo sapiens, UniProt Q13627); assay: NanoBRET dose-response DYRK1A; type: cell-based; details: IC50 not determined, poor assay window
T5 construct: purchased Promega (NanoBRET Target Engagement K192 Kinase Selectivity System)

[11] = molecular target: T6, CLK2 (Homo sapiens, UniProt P49760); assay: NanoBRET dose-response CLK2; type: cell-based; details: highest concentration tested 30 μM
T6 construct: expressed in transfected cells; host or cells: HEK293
T6 sequence (P49760 whole entry): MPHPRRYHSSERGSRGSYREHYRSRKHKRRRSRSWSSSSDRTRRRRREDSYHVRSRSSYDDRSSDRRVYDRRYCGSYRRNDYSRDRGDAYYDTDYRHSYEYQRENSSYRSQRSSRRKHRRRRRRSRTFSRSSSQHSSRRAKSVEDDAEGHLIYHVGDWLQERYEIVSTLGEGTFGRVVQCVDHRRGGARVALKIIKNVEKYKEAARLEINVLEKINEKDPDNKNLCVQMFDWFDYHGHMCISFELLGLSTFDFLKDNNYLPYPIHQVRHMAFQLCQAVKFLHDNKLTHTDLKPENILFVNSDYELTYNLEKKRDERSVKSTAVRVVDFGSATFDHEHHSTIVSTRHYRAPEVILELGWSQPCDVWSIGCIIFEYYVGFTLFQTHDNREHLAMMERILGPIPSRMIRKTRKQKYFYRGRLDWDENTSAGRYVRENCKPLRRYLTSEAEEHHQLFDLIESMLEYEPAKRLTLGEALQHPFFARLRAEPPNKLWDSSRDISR

[12] = male, ip, CD-1 mouse plasma, 10 mg/kg i.p.
[13] = male, iv, CD-1 mouse plasma, 3 mg/kg i.v.
[14] = male, po, CD-1 mouse plasma, 10 mg/kg p.o.

In the case of `CCC(=O)Nc1cc(Nc2cc(NC3CC3)n3ncc(C#N)c3n2)c(F)cc1N1CCC[C@H](NC)C1` [Compound 2, (S)-N-(5-((3-cyano-7-(cyclopropylamino)pyrazolo[1,5-a]pyrimidin-5-yl)amino)-4-fluoro-2-(3-(methylamino)piperidin-1-yl)phenyl)propionamide], the IC50 [1] is reported as over 30 µM, the IC50 [2] is reported as 29 µM and the “cytotoxicity in A549-ACE2 cells” value ([3]; 0.1 μM) is reported as “no toxicity”. The “cytotoxicity in A549-ACE2 cells” value ([3]; 1.0 μM) was “low toxicity”, the viability at 48 h, 0.1 µM ([4]; 0.1 μM) was 100% and the viability at 48 h, 1 µM ([4]; 1.0 μM) was 76%. The IC50 [5] was over 30 µM, the AUC(0-t) [6, 12] was 10.1 µM·h and the Cmax [6, 12] was 2650 nM. For the same molecule, the Tmax [6, 12] was 0.5 h, the half-life [6, 12] was 2.5 h and the AUC(0-t) [6, 13] was 1.87 µM·h. It also gave a half-life [6, 13] of 1.9 h, a Vd ([6]; male, iv, CD-1 mouse plasma, 3 mg/kg i.v., read-out: Vdss) of 3.5 L/kg and a concentration at 24 h ([6]; male, plasma, iv, 3 mg/kg i.v.) of under 1.02 nM. It also gave a concentration at 24 h ([6]; male, plasma, po, 10 mg/kg p.o.) of under 1.02 nM, a bioavailability ([6]; male, plasma, po, CD-1 mouse, 10 mg/kg p.o.) of 52% and an AUC(0-t) [6, 14] of 3.13 µM·h. The Cmax [6, 14] was 563 nM, the Tmax [6, 14] was 2.7 h and the half-life [6, 14] was 2.1 h. The lung concentrations ([6]; mice, 12 and 24 h post dose administration) was “accumulated in the lungs”, the CLint scaled at 5 μM [7] was 12.9 mL/min/kg and the “phosphorylation levels of the CSNK2 substrate EIF2S2” value [8] was “inhibited; also recorded: dose-dependent reduction”. The IC50 [9] was over 30 µM, the “occupancy in the dose-response experiment” value [10] was “no occupancy was observed up to 10 μM” and the IC50 [11] was over 30 µM.
